Reference: ChEMBL document CHEMBL1136525, “6,7-dihydroxyisoquinoline-3-carboxylic acids are potent inhibitors on the binding of insulin-like growth factor (IGF) to IGF-binding proteins: optimization of the 1-position benzoyl side chain” (Bioorg Med Chem Lett, 2003)

biological target: Insulin-like growth factor-binding protein 3 (Homo sapiens, UniProt P17936); test: Ability to displace Insulin-Like Growth Factor (IGF-I) from its binding to human insulin-like growth factor binding protein 3 (hIGFBP-3)
Sequence (P17936 whole entry): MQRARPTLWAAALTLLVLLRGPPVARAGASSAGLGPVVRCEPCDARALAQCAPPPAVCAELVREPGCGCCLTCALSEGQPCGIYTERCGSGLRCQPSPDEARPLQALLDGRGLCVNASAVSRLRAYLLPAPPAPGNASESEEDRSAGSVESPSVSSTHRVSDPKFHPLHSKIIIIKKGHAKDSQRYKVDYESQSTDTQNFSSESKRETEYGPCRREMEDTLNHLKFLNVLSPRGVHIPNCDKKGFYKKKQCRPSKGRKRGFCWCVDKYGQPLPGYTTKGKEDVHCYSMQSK

| Compound | Ki [µM] |
| --- | --- |
| O=C(O)c1cc2cc(O)c(O)cc2c(C(=O)c2ccc(Oc3ccc(-c4ccccc4)cc3)c(F)c2)n1 | 0.032 |
| O=C(O)c1cc2cc(O)c(O)cc2c(C(=O)c2ccc([N+](=O)[O-])cc2)n1 | 0.032 |
| CCCCC(CC)CNc1ccc(C(=O)c2nc(C(=O)O)cc3cc(O)c(O)cc23)cc1F (configuration not stated) | 0.062 |
| Cc1cc(C)c(C(=O)c2nc(C(=O)O)cc3cc(O)c(O)cc23)c(C)c1 | 0.1 |
| CS(=O)(=O)Nc1ccc(C(=O)c2nc(C(=O)O)cc3cc(O)c(O)cc23)cc1 | 0.11 |
| O=C(O)c1cc2cc(O)c(O)cc2c(Cc2ccc3c(c2)OCO3)n1 | 0.072 |
| Nc1cc2cc(C(=O)O)nc(C(=O)c3ccc(O)c(O)c3)c2cc1O | 0.06 |
| O=C(O)c1cc2cc(O)c(O)cc2c(C(=O)c2ccc(Oc3cccc(Cl)c3)c(F)c2)n1 | 0.011 |
| Cc1ccc(Oc2ccc(C(=O)c3nc(C(=O)O)cc4cc(O)c(O)cc34)cc2F)cc1 | 0.0094 |
| CS(=O)(=O)Nc1cc2cc(C(=O)O)nc(C(=O)c3ccc4c(c3)OCO4)c2cc1O | > 10 |
| Nc1cc2cc(C(=O)O)nc(C(=O)c3ccc4c(c3)OCO4)c2cc1O | 0.85 |
| O=C(O)c1cc2cc(O)c(O)cc2c(C(=O)c2ccc(Oc3ccc(C(F)(F)F)cc3)c(F)c2)n1 | 0.032 |
| O=C(O)c1cc2cc(O)c(O)cc2c(C(=O)c2ccc(Oc3ccc(Cl)c(Cl)c3)c(F)c2)n1 | 0.012 |
| O=C(O)c1cc2cc(O)c(O)cc2c(C(=O)c2ccc(Oc3cc(Cl)cc(Cl)c3)c(F)c2)n1 | 0.009 |
| O=C(O)c1cc2cc(O)c(O)cc2c(C(=O)c2ccc(Oc3ccc(Cl)cc3)c(F)c2)n1 | 0.02 |
| O=C(O)c1cc2cc(O)c(O)cc2c(C(=O)c2ccc(C(F)(F)F)cc2)n1 | 0.038 |
| O=C(O)c1cc2cc(O)c(O)cc2c(C(=O)c2ccc(Sc3ccc(Cl)cc3)c(F)c2)n1 | 0.031 |

Other lines, results leading:

| Ki [µM] | Compound |
| --- | --- |
| 0.029 | O=C(O)c1cc2cc(O)c(O)cc2c(C(=O)c2ccc(Cl)c(Cl)c2)n1 |
| 0.11 | O=C(O)c1cc2cc(O)c(O)cc2c(C(=O)c2ccccc2Cl)n1 |
| 0.13 | Nc1ccc(C(=O)c2nc(C(=O)O)cc3cc(O)c(O)cc23)cc1 |
| 0.011 | Cc1cc(C)c(C(O)c2nc(C(=O)O)cc3cc(O)c(O)cc23)c(C)c1 (configuration not stated) |
| 0.051 | O=C(O)c1cc2cc(O)c(O)cc2c(C(=O)c2ccc(F)c(F)c2)n1 |
| 0.025 | O=C(O)c1cc2cc(O)c(O)cc2c(C(O)c2ccccc2Cl)n1 (configuration not stated) |
| 0.032 | O=C(O)c1cc2cc(O)c(O)cc2c(C(O)c2ccc(Oc3ccccc3)cc2)n1 (configuration not stated) |
| 0.11 | O=C(O)c1cc2cc(O)c(O)cc2c(C(=O)c2cccc(F)c2)n1 |
| 0.024 | O=C(O)c1cc2cc(O)c(O)cc2c(C(O)c2cccc(F)c2)n1 (configuration not stated) |
| 0.018 | O=C(O)c1cc2cc(O)c(O)cc2c(C(O)c2ccc(C(F)(F)F)cc2)n1 (configuration not stated) |
